{"source": "patent US6914045B2", "about": "“Glycopeptide antibiotics” (Wyeth Holdings Corporation, priority 2001, dated 2005)", "key": {"Escherichia coli": {"tested_on": "Escherichia coli", "assay": "in vitro antibacterial evaluation, MIC by broth dilution", "assay_type": "cell-based", "conditions": "18 hours at 35° C.", "method_in_brief": "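Broth dilution in Muller-Hinton II medium per NCCLS standard M7-A2, with an inoculum of 5×10^5 CFU/mL and antibiotic tested over 64-0.06 μg/mL. MIC was taken as the lowest concentration inhibiting visible growth.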"}, "[1]": {"assay": "anatomic pathology (histopathology of heart and kidney) in mice", "assay_type": "in vivo", "conditions": "CD-1 mice, 20 mg/kg intravenously daily for 9 days, necropsy day 10, microscopic histopathology", "procedure": "Samples of tissues from necropsied mice were formalin-fixed, paraffin-embedded, sectioned, stained with hematoxylin and eosin, and examined microscopically. Histopathologic findings were recorded. These findings were subjectively graded on a scale corresponding to slight, mild, moderate, marked and severe as compared to untreated controls."}, "Staphylococcus sp.": {"tested_on": "Staphylococcus sp.", "assay": "in vitro antibacterial evaluation, MIC by broth dilution", "assay_type": "cell-based", "conditions": "broth dilution, 18 hours at 35° C.", "method_in_brief": "(§1)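 Inoculum 5×10^5 CFU/mL; concentrations 64 to 0.06 μg/mL; MIC defined as lowest inhibitory level. Conducted by broth dilution under NCCLS guidelines.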"}, "Streptococcus sp.": {"tested_on": "Streptococcus sp.", "assay": "in vitro antibacterial evaluation, MIC by broth dilution", "assay_type": "cell-based", "conditions": "broth dilution, 18 hours at 35° C.", "method_in_brief": "as §1"}, "Enterococcus sp.": {"tested_on": "Enterococcus sp.", "assay": "in vitro antibacterial evaluation, MIC by broth dilution", "assay_type": "cell-based", "conditions": "broth dilution, 18 hours at 35° C.", "method_in_brief": "as §1"}}}
{"smiles": "CC(c1ccccc1)C1NC(=O)CNC(=O)C(CO)NC(=O)C(C(O)C2CN(Cc3ccc(-c4ccccc4)cc3)C(=N)N2C2OC(CO)C(O)C(O)C2O)NC(=O)C(C(O)C2CNC(=N)N2)NC(=O)C(Cc2ccc(OC3OC(CO)C(OC4OC(CO)C(O)C(O)C4O)C(O)C3O)cc2)NC1=O", "note": "(centres unmarked) [Example 66a]", "values": [{"measurement": "MIC Escherichia coli (ATCC 25922)", "setting": "Escherichia coli", "result": ">128", "unit": "µg/mL"}, {"measurement": "MIC Escherichia coli (GC 4559)", "setting": "Escherichia coli", "result": ">128", "unit": "µg/mL"}, {"measurement": "MIC Escherichia coli (GC 4560)", "setting": "Escherichia coli", "result": 8, "unit": "µg/mL"}, {"measurement": "Anatomical Pathology (Day 10), Heart", "setting": "[1]", "result": 0}, {"measurement": "Anatomical Pathology (Day 10), Kidney", "setting": "[1]", "result": "++"}, {"measurement": "MIC Staphylococcus aureus (ATCC 29213)", "setting": "Staphylococcus sp.; strain ATCC 29213", "result": ">128", "unit": "µg/mL"}, {"measurement": "MIC Staphylococcus aureus (GC 1131)", "setting": "Staphylococcus sp.; strain GC 1131", "result": ">128", "unit": "µg/mL"}, {"measurement": "MIC Staphylococcus aureus (GC 3051)", "setting": "Staphylococcus sp.; strain GC 3051", "result": ">128", "unit": "µg/mL"}, {"measurement": "MIC Staphylococcus aureus (GC 3053)", "setting": "Staphylococcus sp.; strain GC 3053", "result": ">128", "unit": "µg/mL"}, {"measurement": "MIC Staphylococcus aureus (GC 4541)", "setting": "Staphylococcus sp.; strain GC 4541", "result": ">128", "unit": "µg/mL"}, {"measurement": "MIC Staphylococcus aureus (GC 4542)", "setting": "Staphylococcus sp.; strain GC 4542", "result": ">128", "unit": "µg/mL"}, {"measurement": "MIC Staphylococcus aureus-SMITH (GC 4543)", "setting": "Staphylococcus sp.; strain GC 4543", "result": ">128", "unit": "µg/mL"}, {"measurement": "MIC Staphylococcus aureus (GC 4544)", "setting": "Staphylococcus sp.; strain GC 4544", "result": ">128", "unit": "µg/mL"}, {"measurement": "MIC Staphylococcus aureus (GC 4545)", "setting": "Staphylococcus sp.; strain GC 4545", "result": ">128", "unit": "µg/mL"}, {"measurement": "MIC Staphylococcus haemolyticus (GC 4546)", "setting": "Staphylococcus sp.; strain GC 4546", "result": ">128", "unit": "µg/mL"}, {"measurement": "MIC Coagulase Negative Staphylococcus (GC 4547)", "setting": "Staphylococcus sp.; strain GC 4547", "result": ">128", "unit": "µg/mL"}, {"measurement": "MIC Coagulase Negative Staphylococcus (GC 4548)", "setting": "Staphylococcus sp.; strain GC 4548", "result": ">128", "unit": "µg/mL"}, {"measurement": "MIC Coagulase Negative Staphylococcus (GC 4549)", "setting": "Staphylococcus sp.; strain GC 4549", "result": ">128", "unit": "µg/mL"}, {"measurement": "MIC Coagulase Negative Staphylococcus (GC 4551)", "setting": "Staphylococcus sp.; strain GC 4551", "result": ">128", "unit": "µg/mL"}, {"measurement": "MIC Streptococcus agalactiae (GC 4564)", "setting": "Streptococcus sp.", "result": ">128", "unit": "µg/mL"}, {"measurement": "MIC Streptococcus pneumoniae (ATCC 6301)", "setting": "Streptococcus sp.", "result": ">128", "unit": "µg/mL"}, {"measurement": "MIC Streptococcus pneumoniae (GC 1894)", "setting": "Streptococcus sp.", "result": ">128", "unit": "µg/mL"}, {"measurement": "MIC Streptococcus pneumoniae (GC 4565)", "setting": "Streptococcus sp.", "result": ">128", "unit": "µg/mL"}, {"measurement": "MIC Streptococcus pyogenes (GC 4563)", "setting": "Streptococcus sp.", "result": ">128", "unit": "µg/mL"}, {"measurement": "MIC Streptococcus pneumoniae (ATCC 6301)", "setting": "Streptococcus sp.; strain ATCC 6301", "result": ">128", "unit": "µg/mL"}, {"measurement": "MIC Streptococcus pneumoniae (GC 1894)", "setting": "Streptococcus sp.; strain GC 1894", "result": ">128", "unit": "µg/mL"}, {"measurement": "MIC Streptococcus pyogenes (GC 4563)", "setting": "Streptococcus sp.; strain GC 4563", "result": ">128", "unit": "µg/mL"}, {"measurement": "MIC Streptococcus agalactiae (GC 4564)", "setting": "Streptococcus sp.; strain GC 4564", "result": ">128", "unit": "µg/mL"}, {"measurement": "MIC Streptococcus pneumoniae (GC 4565)", "setting": "Streptococcus sp.; strain GC 4565", "result": ">128", "unit": "µg/mL"}, {"measurement": "MIC Enterococcus avium (GC 4558)", "setting": "Enterococcus sp.; Enterococcus avium (GC 4558)", "result": 128, "unit": "µg/mL"}, {"measurement": "MIC Enterococcus faecalis (ATCC 29212)", "setting": "Enterococcus sp.; Enterococcus faecalis (ATCC 29212)", "result": ">128", "unit": "µg/mL"}, {"measurement": "MIC Enterococcus faecalis (GC 4552)", "setting": "Enterococcus sp.; Enterococcus faecalis (GC 4552)", "result": ">128", "unit": "µg/mL"}, {"measurement": "MIC Enterococcus faecalis (GC 4553)", "setting": "Enterococcus sp.; Enterococcus faecalis (GC 4553)", "result": ">128", "unit": "µg/mL"}, {"measurement": "MIC Enterococcus faecalis (GC 4554)", "setting": "Enterococcus sp.; Enterococcus faecalis (GC 4554)", "result": ">128", "unit": "µg/mL"}, {"measurement": "MIC Enterococcus faecalis (GC 6189)", "setting": "Enterococcus sp.; Enterococcus faecalis (GC 6189)", "result": ">128", "unit": "µg/mL"}, {"measurement": "MIC Enterococcus faecium (GC 2243)", "setting": "Enterococcus sp.; Enterococcus faecium (GC 2243)", "result": ">128", "unit": "µg/mL"}, {"measurement": "MIC Enterococcus faecium (GC 4556)", "setting": "Enterococcus sp.; Enterococcus faecium (GC 4556)", "result": ">128", "unit": "µg/mL"}, {"measurement": "MIC Enterococcus faecium (GC 4557)", "setting": "Enterococcus sp.; Enterococcus faecium (GC 4557)", "result": ">128", "unit": "µg/mL"}, {"measurement": "MIC Enterococcus avium (GC 4558)", "setting": "Enterococcus sp.", "result": 128, "unit": "µg/mL"}, {"measurement": "MIC Enterococcus faecalis (ATCC 29212)", "setting": "Enterococcus sp.", "result": ">128", "unit": "µg/mL"}, {"measurement": "MIC Enterococcus faecalis (GC 2242)", "setting": "Enterococcus sp.", "result": ">128", "unit": "µg/mL"}, {"measurement": "MIC Enterococcus faecalis (GC 2691)", "setting": "Enterococcus sp.", "result": ">128", "unit": "µg/mL"}, {"measurement": "MIC Enterococcus faecalis (GC 3059)", "setting": "Enterococcus sp.", "result": ">128", "unit": "µg/mL"}, {"measurement": "MIC Enterococcus faecalis (GC 4552)", "setting": "Enterococcus sp.", "result": ">128", "unit": "µg/mL"}, {"measurement": "MIC Enterococcus faecalis (GC 4553)", "setting": "Enterococcus sp.", "result": ">128", "unit": "µg/mL"}, {"measurement": "MIC Enterococcus faecalis (GC 4554)", "setting": "Enterococcus sp.", "result": ">128", "unit": "µg/mL"}, {"measurement": "MIC Enterococcus faecalis (GC 6189)", "setting": "Enterococcus sp.", "result": ">128", "unit": "µg/mL"}, {"measurement": "MIC Enterococcus faecium (GC 2243)", "setting": "Enterococcus sp.", "result": ">128", "unit": "µg/mL"}, {"measurement": "MIC Enterococcus faecium (GC 4556)", "setting": "Enterococcus sp.", "result": ">128", "unit": "µg/mL"}, {"measurement": "MIC Enterococcus faecium (GC 4557)", "setting": "Enterococcus sp.", "result": ">128", "unit": "µg/mL"}, {"measurement": "MIC Enterococcus faecalis (GC 2242)", "setting": "Enterococcus sp.; strain GC 2242", "result": ">128", "unit": "µg/mL"}, {"measurement": "MIC Enterococcus faecalis (GC 2691)", "setting": "Enterococcus sp.; strain GC 2691", "result": ">128", "unit": "µg/mL"}, {"measurement": "MIC Enterococcus faecalis (GC 3059)", "setting": "Enterococcus sp.; strain GC 3059", "result": ">128", "unit": "µg/mL"}]}
